Columns and labels:
Assay type in all cases: cell-based
[1] = system: HeLa (cervical cancer); assay: Antiproliferative activity (CCK-8 cell viability), HeLa; conditions: Homo sapiens, 72 h, read-out: Antiproliferative activity in cancerous cells, HELA (inhibition of cell growth); for inhibition at 3.3 µM: Compound concentration: 3.3 μM; for inhibition at 10 µM: Compound concentration: 10 μM; for inhibition at 30 µM: Compound concentration: 30 μM
Procedure, shortened: (§1)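 Cells were seeded at 2,000-5,000/well (HeLa in MEM, HepG2 and SW480 in DMEM, A549 in F-12K, all with 10% FBS) and treated with compound at 3.3, 10 or 30 μM for 72 h at 37° C. CCK-8 was added for 4 h, absorbance was read at 450 nm, and viability was expressed relative to DMSO-treated wells.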

[2] = system: A431 (epidermoid carcinoma); assay: Antiproliferative activity (CCK-8 cell viability), A431; conditions: Homo sapiens, 72 h, read-out: Antiproliferative activity in cancerous cells, A431 (inhibition of cell growth); for inhibition at 3.3 µM: A-431, Compound concentration: 3.3 μM; for inhibition at 10 µM: A-431, Compound concentration: 10 μM; for inhibition at 30 µM: A-431, Compound concentration: 30 μM
Procedure, shortened: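 Cell viability of compound-treated A431 cells was measured with a Cell Counting Kit-8. Each well received 10 μL of CCK-8 after 72 h of compound exposure, followed by 4 h incubation at 37° C. and a 450 nm plate-reader measurement. Percent viability was calculated relative to DMSO controls across replicates.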

[3] = system: B16F10 (malignant melanoma); assay: Antiproliferative activity (CCK-8 cell viability), B16F10; conditions: Mus musculus, 72 h, read-out: Antiproliferative activity in cancerous cells, B16F10 (inhibition of cell growth); for inhibition at 3.3 µM: B16-F10, Compound concentration: 3.3 μM; for inhibition at 10 µM: B16-F10, Compound concentration: 10 μM; for inhibition at 30 µM: B16-F10, Compound concentration: 30 μM
Procedure, shortened: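 Attached B16F10 cells in 96-well plates were incubated with compound at 37° C for 72 h, followed by 10 μL CCK-8 reagent per well and a further 4 h incubation. A multi-well plate reader measured absorbance at 450 nm. Percent viability across replicates was calculated against DMSO vehicle-treated cells.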

[4] = system: HepG2 (liver cancer); assay: Antiproliferative activity (CCK-8 cell viability), HepG2; conditions: Homo sapiens, 72 h, read-out: Antiproliferative activity in cancerous cells, HepG2 (inhibition of cell growth); for inhibition at 3.3 µM: Compound concentration: 3.3 μM; for inhibition at 10 µM: Compound concentration: 10 μM; for inhibition at 30 µM: Compound concentration: 30 μM
Procedure, shortened: as §1

[5] = system: A549 (lung adenocarcinoma); assay: Antiproliferative activity (CCK-8 cell viability), A549; conditions: Homo sapiens, 72 h, read-out: Antiproliferative activity in cancerous cells, A549 (inhibition of cell growth); for inhibition at 3.3 µM: Compound concentration: 3.3 μM; for inhibition at 10 µM: Compound concentration: 10 μM; for inhibition at 30 µM: Compound concentration: 30 μM
Procedure, shortened: as §1

[6] = system: alpha-smooth muscle actin (α-SMA); assay: Inhibition of TGF-β induced expression of alpha-smooth muscle actin (α-SMA) in CFSC cells (western blot); conditions: compound at 10 μM, TGF-β (10 ng/mL), 24 hours, band intensity vs TGF-β only
Procedure, shortened: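 CFSC hepatic stellate cells in serum-free DMEM treated 24 h at 37 °C with compound at 10 μM plus TGF-β (10 ng/mL). α-SMA measured by Western blot with β-actin, ECL detection, densitometry. Percent inhibition is decrease in band intensity versus TGF-β-only cells.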

[7] = system: SW480 (colon cancer); assay: Antiproliferative activity (CCK-8 cell viability), SW480; conditions: Homo sapiens, 72 h, read-out: Antiproliferative activity in cancerous cells, SW480 (inhibition of cell growth); for inhibition at 3.3 µM: Compound concentration: 3.3 μM; for inhibition at 10 µM: Compound concentration: 10 μM; for inhibition at 30 µM: Compound concentration: 30 μM
Procedure, shortened: as §1

[8] = system: MDA-MB-231 (breast cancer); assay: Antiproliferative activity (CCK-8 cell viability), MDA-MB-231; conditions: Homo sapiens, 72 h, read-out: Antiproliferative activity in cancerous cells, MDA-MB-231 (inhibition of cell growth); for inhibition at 3.3 µM: Compound concentration: 3.3 μM; for inhibition at 10 µM: Compound concentration: 10 μM; for inhibition at 30 µM: Compound concentration: 30 μM
Procedure, shortened: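 In this CCK-8 viability assay, MDA-MB-231 cells maintained in Dulbecco's modified Eagle's medium containing 10% fetal bovine serum were placed in 96-well plates (2,000-5,000 cells/well) and treated with compound for 72 h at 37° C. A 4 h incubation with 10 μL CCK-8 followed, plates were read at 450 nm, and viability was expressed against DMSO vehicle wells across replicates.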

SMILES: CC1=C(CC(=O)O)c2cc(F)ccc2/C1=C/c1cccc(COc2ccc(F)cc2F)c1 [E6, (E)-2-(1-(3-((2,4-Difluorophenoxy)methyl)benzylidene)-5-fluoro-2-methyl-1H-inden-3-yl)acetic acid]
- inhibition at 3.3 µM [1]: < 30%
- inhibition at 10 µM [1]: < 30%
- inhibition at 30 µM [1]: ≥ 50%
- inhibition at 3.3 µM [2]: < 30%
- inhibition at 10 µM [2]: 30 to 50%
- inhibition at 30 µM [2]: ≥ 50%
- inhibition at 3.3 µM [3]: < 30%
- inhibition at 10 µM [3]: 30 to 50%
- inhibition at 30 µM [3]: ≥ 50%
- inhibition at 3.3 µM [4]: < 30%
- inhibition at 10 µM [4]: < 30%
- inhibition at 30 µM [4]: ≥ 50%
- inhibition at 3.3 µM [5]: < 30%
- inhibition at 10 µM [5]: < 30%
- inhibition at 30 µM [5]: ≥ 50%
- inhibition at 10 µM [6]: > 80%
- inhibition at 3.3 µM [7]: < 30%
- inhibition at 10 µM [7]: 30 to 50%
- inhibition at 30 µM [7]: ≥ 50%
- inhibition at 3.3 µM [8]: 30 to 50%
- inhibition at 10 µM [8]: 30 to 50%
- inhibition at 30 µM [8]: ≥ 50%

SMILES: CC1=C(CC(=O)O)c2cc(F)cc(F)c2/C1=C/c1cccc(COc2ccccc2)c1 [E7, (E)-2-(5,7-Difluoro-2-methyl-1-(3-(phenoxymethyl)benzylidene)-1H-inden-3-yl)-acetic acid]
- inhibition at 3.3 µM [1]: ≥ 50%
- inhibition at 10 µM [1]: ≥ 50%
- inhibition at 30 µM [1]: ≥ 50%
- inhibition at 3.3 µM [2]: 30 to 50%
- inhibition at 10 µM [2]: ≥ 50%
- inhibition at 30 µM [2]: ≥ 50%
- inhibition at 3.3 µM [3]: < 30%
- inhibition at 10 µM [3]: < 30%
- inhibition at 30 µM [3]: ≥ 50%
- inhibition at 3.3 µM [4]: 30 to 50%
- inhibition at 10 µM [4]: ≥ 50%
- inhibition at 30 µM [4]: ≥ 50%
- inhibition at 3.3 µM [5]: ≥ 50%
- inhibition at 10 µM [5]: ≥ 50%
- inhibition at 30 µM [5]: ≥ 50%
- inhibition at 10 µM [6]: > 80%
- inhibition at 3.3 µM [7]: ≥ 50%
- inhibition at 10 µM [7]: ≥ 50%
- inhibition at 30 µM [7]: ≥ 50%
- inhibition at 3.3 µM [8]: < 30%
- inhibition at 10 µM [8]: ≥ 50%
- inhibition at 30 µM [8]: ≥ 50%

SMILES: CC1=C(CCC(=O)O)c2ccccc2/C1=C/c1cccc(Oc2ccccc2)c1 [E10, (E)-3-(2-Methyl-1-(3-phenoxybenzylidene)-1H-inden-3-yl)propanoic acid]
- inhibition at 3.3 µM [1]: < 30%
- inhibition at 10 µM [1]: < 30%
- inhibition at 30 µM [1]: < 30%
- inhibition at 3.3 µM [2]: < 30%
- inhibition at 10 µM [2]: < 30%
- inhibition at 30 µM [2]: < 30%
- inhibition at 3.3 µM [3]: < 30%
- inhibition at 10 µM [3]: < 30%
- inhibition at 30 µM [3]: 30 to 50%
- inhibition at 3.3 µM [4]: < 30%
- inhibition at 10 µM [4]: < 30%
- inhibition at 30 µM [4]: < 30%
- inhibition at 3.3 µM [5]: < 30%
- inhibition at 10 µM [5]: 30 to 50%
- inhibition at 30 µM [5]: ≥ 50%
- inhibition at 10 µM [6]: < 30%
- inhibition at 3.3 µM [7]: < 30%
- inhibition at 10 µM [7]: < 30%
- inhibition at 30 µM [7]: 30 to 50%
- inhibition at 3.3 µM [8]: < 30%
- inhibition at 10 µM [8]: < 30%
- inhibition at 30 µM [8]: ≥ 50%

SMILES: CC1=C(CC(=O)O)c2c(F)ccc(F)c2/C1=C/c1ccc(C(C)C)cc1 [E12, (E)-2-(4,7-Difluoro-1-(4-isopropylbenzylidene)-2-methyl-1H-inden-3-yl)acetic acid]
- inhibition at 3.3 µM [1]: < 30%
- inhibition at 10 µM [1]: 30 to 50%
- inhibition at 30 µM [1]: ≥ 50%
- inhibition at 3.3 µM [2]: < 30%
- inhibition at 10 µM [2]: 30 to 50%
- inhibition at 30 µM [2]: ≥ 50%
- inhibition at 3.3 µM [3]: 30 to 50%
- inhibition at 10 µM [3]: ≥ 50%
- inhibition at 30 µM [3]: ≥ 50%
- inhibition at 3.3 µM [4]: < 30%
- inhibition at 10 µM [4]: < 30%
- inhibition at 30 µM [4]: 30 to 50%
- inhibition at 3.3 µM [5]: < 30%
- inhibition at 10 µM [5]: 30 to 50%
- inhibition at 30 µM [5]: ≥ 50%
- inhibition at 10 µM [6]: < 30%
- inhibition at 3.3 µM [7]: < 30%
- inhibition at 10 µM [7]: 30 to 50%
- inhibition at 30 µM [7]: ≥ 50%
- inhibition at 3.3 µM [8]: ≥ 50%
- inhibition at 10 µM [8]: ≥ 50%
- inhibition at 30 µM [8]: ≥ 50%

Reference: patent publication US20260184663A1, “INDENE COMPOUNDS, PHARMACEUTICAL COMPOSITIONS THEREOF, AND THEIR THERAPEUTIC APPLICATIONS” (NucMito Pharmaceuticals co. Ltd., priority 2022, published 2026)
